pIC50, pKi: −log10 of the molar value. The source made the active and inactive calls. No cut-off for these calls is given here.
Tests used:
Coagulation factor X [1] = biological target: T1, Coagulation factor X (Homo sapiens, UniProt P00742); assay: Inhibition of human F10a using S-2765 as substrate at 0.1 uM after 45 mins
Coagulation factor X [2] = biological target: T1, Coagulation factor X; assay: Inhibition of human F10a using S-2765 as substrate after 45 mins
Plasma [3] = assay: Anticoagulant activity in rat plasma assessed as concentration required to double prothrombin time; format: functional
Plasma [4] = system: Plasma
Coagulation factor X [5] = biological target: T1, Coagulation factor X; assay: Inhibition of F10a assessed as S-2765 substrate hydrolysis by microplate reader analysis
Prothrombin = Prothrombin (Homo sapiens, UniProt P00734); assay: Inhibition of thrombin assessed as S-2238 substrate hydrolysis by microplate reader analysis
Plasminogen = Plasminogen (Homo sapiens, UniProt P00747); assay: Inhibition of plasmin assessed as S-2302 substrate hydrolysis by microplate reader analysis
[6] = biological target: Tissue-type plasminogen activator (Homo sapiens, UniProt P00750); assay: Inhibition of tPA assessed as S-2288 substrate hydrolysis by microplate reader analysis
[7] = Inhibition of trypsin assessed as S-2222 substrate hydrolysis by microplate reader analysis
[8] = biological target: Vitamin K-dependent protein C (Homo sapiens, UniProt P04070); assay: Inhibition of activated protein C assessed as S-2366 substrate hydrolysis by microplate reader analysis
CYP3A4 = CYP3A4 (Homo sapiens, UniProt P08684); assay: Inhibition of human CYP3A4 at 10 uM; format: ADME
Rattus norvegicus [9] = assay: Antithrombotic activity in FeCl3-induced arterial thrombosis Wistar rat model assessed as reduction in thrombus weight at 10 mg/kg, po after 2 hrs; format: functional; design: scale not given: the % may be the effect or the level left
Rattus norvegicus [10] = assay: Antithrombotic activity in FeCl3-induced arterial thrombosis Wistar rat model assessed as reduction in thrombus weight at 30 mg/kg, po after 2 hrs; format: functional; design: scale not given: the % may be the effect or the level left
Plasma [11] = assay: Plasma concentration in fasted Wistar rat at 30 mg/kg, po; format: ADME, organism-based; design: dose 30 mg/kg, route oral; conditions: in vivo
Rattus norvegicus [12] = assay: Cmax in fasted Wistar rat assessed as 5-Chloro-N-(5-chloropyridin-2-yl)-2-(4-(N-(2-(ethyl-amino)acetyl)-S-methylsulfon imidoyl) benzamido) benzamide at 30 mg/kg, po; format: ADME, organism-based; design: dose 30 mg/kg, route oral; conditions: in vivo
Rattus norvegicus [13] = assay: Tmax in fasted Wistar rat assessed as 5-Chloro-N-(5-chloropyridin-2-yl)-2-(4-(N-(2-(ethyl-amino)acetyl)-S-methylsulfon imidoyl) benzamido) benzamide at 30 mg/kg, po; format: ADME, organism-based; design: dose 30 mg/kg, route oral; conditions: in vivo
Rattus norvegicus [14] = assay: Half life in fasted Wistar rat assessed as 5-Chloro-N-(5-chloropyridin-2-yl)-2-(4-(N-(2-(ethyl-amino)acetyl)-S-methylsulfon imidoyl) benzamido) benzamide at 30 mg/kg, po; format: ADME, organism-based; design: dose 30 mg/kg, route oral; conditions: in vivo
Rattus norvegicus [15] = assay: AUC (0 to 24 hrs) in fasted Wistar rat assessed as 5-Chloro-N-(5-chloropyridin-2-yl)-2-(4-(N-(2-(ethyl-amino)acetyl)-S-methylsulfon imidoyl) benzamido) benzamide at 30 mg/kg, po; format: ADME, organism-based, Plasma; design: time < 24 hr, dose 30 mg/kg, route oral; conditions: in vivo
Rattus norvegicus [16] = assay: Antithrombotic activity in FeCl3-induced venous thrombosis Wistar rat model assessed as reduction in thrombus weight at 10 mg/kg, po after 2 hrs; format: functional; design: scale not given: the % may be the effect or the level left
Rattus norvegicus [17] = assay: Antithrombotic activity in FeCl3-induced venous thrombosis Wistar rat model assessed as reduction in thrombus weight at 30 mg/kg, po after 2 hrs; format: functional; design: scale not given: the % may be the effect or the level left
Rattus norvegicus [18] = assay: Antithrombotic activity in po dosed FeCl3-induced arterial thrombosis Wistar rat model assessed as reduction in thrombus weight after 2 hrs; format: functional, organism-based
Rattus norvegicus [19] = assay: Antithrombotic activity in po dosed FeCl3-induced venous thrombosis Wistar rat model assessed as reduction in thrombus weight after 2 hrs; format: functional, organism-based

T1 sequence (P00742 41-179 limits assumed): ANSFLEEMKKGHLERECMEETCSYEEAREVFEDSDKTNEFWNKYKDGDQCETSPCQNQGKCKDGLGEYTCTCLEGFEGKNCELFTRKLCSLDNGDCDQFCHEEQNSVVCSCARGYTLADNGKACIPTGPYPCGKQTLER
T1 sequence (P00742 235-488 limits assumed): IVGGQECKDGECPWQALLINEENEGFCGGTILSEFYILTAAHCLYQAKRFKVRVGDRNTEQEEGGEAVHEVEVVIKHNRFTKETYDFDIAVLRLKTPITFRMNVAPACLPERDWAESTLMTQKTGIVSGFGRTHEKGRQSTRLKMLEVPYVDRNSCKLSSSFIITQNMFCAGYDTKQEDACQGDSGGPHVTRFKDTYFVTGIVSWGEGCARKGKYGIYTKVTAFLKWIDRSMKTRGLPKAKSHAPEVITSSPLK
Chain of Plasminogen (P00747 97-580 limits assumed): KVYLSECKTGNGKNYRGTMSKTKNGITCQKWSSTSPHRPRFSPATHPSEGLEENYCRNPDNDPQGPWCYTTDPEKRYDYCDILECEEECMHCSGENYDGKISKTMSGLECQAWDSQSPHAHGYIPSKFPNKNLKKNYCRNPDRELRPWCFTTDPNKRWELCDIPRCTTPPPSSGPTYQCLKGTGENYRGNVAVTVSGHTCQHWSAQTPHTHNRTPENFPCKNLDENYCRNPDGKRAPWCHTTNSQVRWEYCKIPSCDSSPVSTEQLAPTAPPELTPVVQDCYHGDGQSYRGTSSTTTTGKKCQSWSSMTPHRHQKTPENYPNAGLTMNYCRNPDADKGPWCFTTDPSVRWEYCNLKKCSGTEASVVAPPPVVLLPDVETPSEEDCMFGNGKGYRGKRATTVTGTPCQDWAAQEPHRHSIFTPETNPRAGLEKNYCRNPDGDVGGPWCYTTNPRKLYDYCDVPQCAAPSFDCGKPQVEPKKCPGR
Chain of Plasminogen (P00747 581-810 limits assumed): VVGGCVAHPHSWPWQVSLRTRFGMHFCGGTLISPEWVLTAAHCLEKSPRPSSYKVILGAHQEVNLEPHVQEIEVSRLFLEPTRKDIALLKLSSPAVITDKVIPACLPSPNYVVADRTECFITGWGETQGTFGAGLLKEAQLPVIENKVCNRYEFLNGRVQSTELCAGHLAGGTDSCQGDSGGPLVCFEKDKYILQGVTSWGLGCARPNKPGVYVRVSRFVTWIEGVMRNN
Chain of Vitamin K-dependent protein C (P04070 43-197 limits assumed): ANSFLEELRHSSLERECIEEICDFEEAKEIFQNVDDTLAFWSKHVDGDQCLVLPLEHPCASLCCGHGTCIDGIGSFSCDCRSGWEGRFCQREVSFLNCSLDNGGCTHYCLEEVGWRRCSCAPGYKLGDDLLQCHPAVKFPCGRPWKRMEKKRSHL
Chain of Vitamin K-dependent protein C (P04070 212-461 limits assumed): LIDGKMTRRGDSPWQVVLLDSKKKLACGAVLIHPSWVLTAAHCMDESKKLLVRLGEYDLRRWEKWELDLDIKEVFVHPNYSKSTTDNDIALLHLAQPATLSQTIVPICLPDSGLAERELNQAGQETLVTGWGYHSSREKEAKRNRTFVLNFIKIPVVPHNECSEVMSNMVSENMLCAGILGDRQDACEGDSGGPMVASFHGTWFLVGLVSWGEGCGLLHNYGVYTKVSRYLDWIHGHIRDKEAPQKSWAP
Chain of CYP3A4 (P08684 whole entry): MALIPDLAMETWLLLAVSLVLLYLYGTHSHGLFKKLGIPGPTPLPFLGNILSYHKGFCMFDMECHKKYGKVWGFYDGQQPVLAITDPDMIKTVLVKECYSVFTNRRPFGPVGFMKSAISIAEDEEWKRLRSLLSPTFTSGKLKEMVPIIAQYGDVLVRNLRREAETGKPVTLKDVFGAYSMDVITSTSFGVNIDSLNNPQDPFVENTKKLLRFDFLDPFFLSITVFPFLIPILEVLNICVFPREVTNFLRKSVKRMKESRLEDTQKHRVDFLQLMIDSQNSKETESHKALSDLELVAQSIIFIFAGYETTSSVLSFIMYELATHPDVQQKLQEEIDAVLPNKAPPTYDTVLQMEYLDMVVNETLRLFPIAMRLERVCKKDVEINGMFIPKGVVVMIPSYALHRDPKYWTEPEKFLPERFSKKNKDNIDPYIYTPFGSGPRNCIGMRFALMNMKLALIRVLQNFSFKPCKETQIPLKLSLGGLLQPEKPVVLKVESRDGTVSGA
Chain of Tissue-type plasminogen activator (P00750 whole entry): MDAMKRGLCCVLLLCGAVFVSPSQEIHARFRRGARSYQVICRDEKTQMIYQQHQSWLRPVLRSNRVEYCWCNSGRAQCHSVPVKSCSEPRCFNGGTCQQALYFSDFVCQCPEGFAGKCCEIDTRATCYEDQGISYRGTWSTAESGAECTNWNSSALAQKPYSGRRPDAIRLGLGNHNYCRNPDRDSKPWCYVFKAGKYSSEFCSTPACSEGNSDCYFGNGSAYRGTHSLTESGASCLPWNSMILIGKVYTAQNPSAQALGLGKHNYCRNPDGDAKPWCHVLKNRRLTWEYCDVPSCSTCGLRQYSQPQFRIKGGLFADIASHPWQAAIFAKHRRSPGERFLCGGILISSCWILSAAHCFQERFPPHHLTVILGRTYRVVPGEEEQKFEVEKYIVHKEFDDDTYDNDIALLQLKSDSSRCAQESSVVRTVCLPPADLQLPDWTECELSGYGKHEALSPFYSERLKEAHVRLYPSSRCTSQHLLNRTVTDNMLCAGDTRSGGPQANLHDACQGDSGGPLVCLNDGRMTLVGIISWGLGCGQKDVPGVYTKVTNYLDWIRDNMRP

SMILES	inhibition (Coagulation factor X [1])	2PT (Plasma [3])	2PT (Plasma [4])	other results
CN(C)CCN=S(C)(=O)c1ccc(C(=O)Nc2ccc(Cl)cc2C(=O)Nc2ccc(Cl)cn2)cc1 (configuration not stated)	82%	2.01 µM	1.14 µM	pIC50 (Coagulation factor X [2]): 7.94
CNCC(=O)N=S(C)(=O)c1ccc(C(=O)Nc2c(OC)cc(Cl)cc2C(=O)Nc2ccc(Cl)cn2)cc1 (configuration not stated)	92%	0.9 µM	0.58 µM	pIC50 (Coagulation factor X [2]): 8.25
CS(=O)(=NC(=O)CN1CCOCC1)c1ccc(C(=O)Nc2ccc(Cl)cc2C(=O)Nc2ccc(Cl)cn2)cc1 (configuration not stated)	45%			
COc1cc(Cl)cc(C(=O)Nc2ccc(Cl)cn2)c1NC(=O)c1ccc(S(C)(=N)=O)cc1 (configuration not stated)	69%			
CCN(CC)CC(=O)N=S(C)(=O)c1ccc(C(=O)Nc2ccc(Cl)cc2C(=O)Nc2ccc(Cl)cn2)cc1 (configuration not stated) [listing 1 of 2 here]		0.8 µM	0.68 µM	pIC50 (Coagulation factor X [2]): 8.68; pKi (Coagulation factor X [5]): 8.96; pKi (Prothrombin): < 4.70; pKi (Plasminogen): < 4.70; pKi [6]: < 4.70; pKi [7]: < 4.70; pKi [8]: < 4.70; inhibition at 10 µM (CYP3A4): 18%
N=S(=O)(CCO)c1ccc(C(=O)Nc2ccc(Cl)cc2C(=O)Nc2ccc(Cl)cn2)cc1 (configuration not stated)	inactive			
CS(=O)(=NC(N)=O)c1ccc(C(=O)Nc2ccc(Cl)cc2C(=O)Nc2ccc(Cl)cn2)cc1 (configuration not stated)	41%		4.1 µM	
COc1ccc(NC(=O)c2ccc(S(C)(=N)=O)cc2)c(C(=O)Nc2ccc(Cl)cn2)c1 (configuration not stated)	42%			
CCN(CC)CC(=O)N=S(C)(=O)c1ccc(C(=O)Nc2ccc(Cl)cc2C(=O)Nc2ccc(Cl)cn2)cc1.Cl (configuration not stated)				Activity (Rattus norvegicus [9]): 32%; Activity (Rattus norvegicus [10]): 71%; Cp (Plasma [11]): < 100 ng/mL; Cmax (Rattus norvegicus [12]): 3280 ng/mL; Tmax (Rattus norvegicus [13]): 2.75 h; t1/2 (Rattus norvegicus [14]): 4.79 h; AUC (Rattus norvegicus [15]): 43510 ng·h/mL; Activity (Rattus norvegicus [16]): 45%; Activity (Rattus norvegicus [17]): 81%
CN(C)CC(=O)N=S(C)(=O)c1ccc(C(=O)Nc2ccc(Cl)cc2C(=O)Nc2ccc(Cl)cn2)cc1 (configuration not stated)	85%	1.4 µM	1.2 µM	pIC50 (Coagulation factor X [2]): 8.05
CS(=O)(=NC(=O)CNC1CCCC1)c1ccc(C(=O)Nc2ccc(Cl)cc2C(=O)Nc2ccc(Cl)cn2)cc1 (configuration not stated)	100%		2.26 µM	
CC(C)NCC(=O)N=S(C)(=O)c1ccc(C(=O)Nc2ccc(Cl)cc2C(=O)Nc2ccc(Cl)cn2)cc1 (configuration not stated)	97%	1.9 µM	0.95 µM	pIC50 (Coagulation factor X [2]): 8.40
CS(=N)(=O)Cc1ccc(C(=O)Nc2ccc(Cl)cc2C(=O)Nc2ccc(Cl)cn2)cc1 (configuration not stated)	inactive			
O=C(NC[C@H]1CN(c2ccc(N3CCOCC3=O)cc2)C(=O)O1)c1ccc(Cl)s1 [RIVAROXABAN]		1.5 µM	0.39 µM	Activity (Rattus norvegicus [9]): 50%; Activity (Rattus norvegicus [16]): 63%
CN1CCN(CC(=O)N=S(C)(=O)c2ccc(C(=O)Nc3ccc(Cl)cc3C(=O)Nc3ccc(Cl)cn3)cc2)CC1 (configuration not stated)	88%		2.03 µM	
C[S+](=N)([O-])c1ccc(C(=O)Nc2ccc(Cl)cc2C(=O)Nc2ccc(Cl)cn2)cc1 (configuration not stated)	76%		7.2 µM	
CS(=O)(=NCCN1CCCC1)c1ccc(C(=O)Nc2ccc(Cl)cc2C(=O)Nc2ccc(Cl)cn2)cc1 (configuration not stated)	74%		2.16 µM	
CCNCC(=O)N=S(C)(=O)c1ccc(C(=O)Nc2c(OC)cc(Cl)cc2C(=O)Nc2ccc(Cl)cn2)cc1 (configuration not stated)	100%	1.15 µM	0.74 µM	pIC50 (Coagulation factor X [2]): 8.62
CCS(=N)(=O)c1ccc(C(=O)Nc2ccc(Cl)cc2C(=O)Nc2ccc(Cl)cn2)cc1 (configuration not stated)	inactive			

SMILES	inhibition (Coagulation factor X [1])	2PT (Plasma [3])	2PT (Plasma [4])	other results
CCNCC(=O)N=S(C)(=O)c1ccc(C(=O)Nc2ccc(Cl)cc2C(=O)Nc2ccc(Cl)cn2)cc1 (configuration not stated)	100%	2.1 µM	0.81 µM	pIC50 (Coagulation factor X [2]): 8.57; pKi (Coagulation factor X [5]): 8.82; pKi (Prothrombin): < 4.70; pKi (Plasminogen): < 4.70; pKi [6]: < 4.70; pKi [7]: < 4.70; pKi [8]: < 4.70; inhibition at 10 µM (CYP3A4): 27%
CNCC(=O)N=S(C)(=O)c1ccc(C(=O)Nc2ccc(Cl)cc2C(=O)Nc2ccc(Cl)cn2)cc1 (configuration not stated)	93%	1.7 µM	0.77 µM	pIC50 (Coagulation factor X [2]): 8.27
CN1CCCN(CC(=O)N=S(C)(=O)c2ccc(C(=O)Nc3ccc(Cl)cc3C(=O)Nc3ccc(Cl)cn3)cc2)CC1 (configuration not stated)	75%		1.82 µM	
CS(=O)(=NC#N)c1ccc(C(=O)Nc2ccc(Cl)cc2C(=O)Nc2ccc(Cl)cn2)cc1 (configuration not stated)	76%		2.3 µM	
CC(C)N(CC(=O)N=S(C)(=O)c1ccc(C(=O)Nc2ccc(Cl)cc2C(=O)Nc2ccc(Cl)cn2)cc1)C(C)C (configuration not stated)	79%		1.45 µM	
CCN(CC)CC(=O)N=S(C)(=O)c1ccc(C(=O)Nc2ccc(Cl)cc2C(=O)Nc2ccc(Cl)cn2)cc1 (configuration not stated) [listing 2 of 2 here]	100%			Activity (Rattus norvegicus [18]): Dose-dependent effect; Activity (Rattus norvegicus [19]): Dose-dependent effect
CS(=O)(=NC(=O)CN1CCCCC1)c1ccc(C(=O)Nc2ccc(Cl)cc2C(=O)Nc2ccc(Cl)cn2)cc1 (configuration not stated)	97%		1.73 µM	
CCN(CC)CCN=S(C)(=O)c1ccc(C(=O)Nc2ccc(Cl)cc2C(=O)Nc2ccc(Cl)cn2)cc1 (configuration not stated)	77%		1.78 µM	
CC(=O)N=[S+](C)([O-])c1ccc(C(=O)Nc2ccc(Cl)cc2C(=O)Nc2ccc(Cl)cn2)cc1 (configuration not stated)	61%		7 µM	
CCN(CC)CC(=O)N=S(C)(=O)c1ccc(C(=O)Nc2c(OC)cc(Cl)cc2C(=O)Nc2ccc(Cl)cn2)cc1 (configuration not stated)	97%	1.3 µM	0.92 µM	pIC50 (Coagulation factor X [2]): 8.47
COc1cccc(C(=O)Nc2ccc(Cl)cn2)c1NC(=O)c1ccc(S(C)(=N)=O)cc1 (configuration not stated)	inactive			
COCC(=O)N=S(C)(=O)c1ccc(C(=O)Nc2ccc(Cl)cc2C(=O)Nc2ccc(Cl)cn2)cc1 (configuration not stated)	48%		3 µM	
CCN(CC)CC(=O)N=S(C)(=O)c1ccc(C(=O)Nc2ccc(OC)cc2C(=O)Nc2ccc(Cl)cn2)cc1 (configuration not stated)	56%		1.44 µM	
COc1cc(Cl)cc(C(=O)Nc2ccc(Cl)cn2)c1NC(=O)c1ccc(S(C)(=O)=NC(=O)CN2CCCC2)cc1 (configuration not stated)	90%	1.1 µM	0.53 µM	pIC50 (Coagulation factor X [2]): 8.19
CS(=O)(=NC(=O)CN1CCCC1)c1ccc(C(=O)Nc2ccc(Cl)cc2C(=O)Nc2ccc(Cl)cn2)cc1 (configuration not stated)	95%	1.57 µM	0.46 µM	pIC50 (Coagulation factor X [2]): 8.49
CS(=O)(=NC(=O)CN1CCC(C(N)=O)CC1)c1ccc(C(=O)Nc2ccc(Cl)cc2C(=O)Nc2ccc(Cl)cn2)cc1 (configuration not stated)	49%		2.54 µM	
CS(=O)(=NC(=O)CN1CCC(O)CC1)c1ccc(C(=O)Nc2ccc(Cl)cc2C(=O)Nc2ccc(Cl)cn2)cc1 (configuration not stated)	69%		2.16 µM	
CS(=O)(=O)N=S(C)(=O)c1ccc(C(=O)Nc2ccc(Cl)cc2C(=O)Nc2ccc(Cl)cn2)cc1 (configuration not stated)	55%		2.6 µM	

— ChEMBL document CHEMBL2151025, “Synthesis and structure-activity relationship of potent, selective and orally active anthranilamide-based factor Xa inhibitors: application of weakly basic sulfoximine group as novel S4 binding element” (Eur J Med Chem, 2012)
